Data: patent publication US20240140931A1, “TRICYCLIC COMPOUNDS AND USES THEREOF” (HUTCHMED LIMITED, priority 2021, published 2024)

Tests used:
[1] = target: Human full-length SHP2 recombinant protein (Homo sapiens (Human), UniProt Q06124); test: Assay of full-length SHP2 phosphatase activity; type: biochemical; conditions: DiFMUP substrate, with activating peptide
How it was run: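 Readout: DiFMUP hydrolysis fluorescence (355/460 nm) after 60 min at 25 °C, following 30 min RT preincubation of compound with peptide-activated full-length human SHP2. Controls were 1% DMSO with or without enzyme; IC50 by four-parameter logistic fit.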

[2] = tested on: pERK1/2 (Thr202/Tyr204) in Miapaca2 cells; test: Assay of intracellular pERK1/2 (Thr202/Tyr204) phosphorylation; type: cell-based; conditions: pERK1/2 (Thr202/Tyr204) HTRF
How it was run: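 HTRF read-out (665/615 nm) of phospho-ERK1/2 Thr202/Tyr204 in lysates from Miapaca2 cells exposed for 2 h to 3-fold compound dilutions at 0.5% final DMSO. Controls: lysis buffer without cells and DMSO-treated cells; IC50 from four-parameter logistic fit.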

| IC50 [1] | IC50 ([2]; Homo sapiens, MIA PaCa-2, 2 h) | IC50 ([2]; 2 hours) | Structure (SMILES) |
| --- | --- | --- | --- |
| 3 nM | 20 nM |  | COCCSc1ccc2c(c1)[C@@H](N)C1(CCN(c3ncc(Sc4ccnc(N)n4)c4nccn34)CC1)C2 [Compound 98] |
| 2 nM | 40 nM |  | COCCSc1ccc2c(c1)[C@@H](N)C1(CCN(c3cc(=O)n(-c4cccc(Cl)c4Cl)c(C)n3)CC1)C2 [Compound 99] |
| 2 nM | 12 nM |  | COCC#Cc1ccc2c(c1)[C@@H](N)C1(CCN(c3ncc(Sc4ccnc(N)n4)c4nccn34)CC1)C2 [Compound 100] |
| 12 nM | 96 nM |  | COCCSc1ccc2c(c1)[C@@H](N)C1(CCN(c3cc(=O)n(-c4ccc(F)c(OC)c4F)c(C)n3)CC1)C2 [Compound 101] |
| 4 nM | 40 nM |  | COCC#Cc1ccc2c(c1)[C@@H](N)C1(CCN(c3cc(=O)n(-c4cccc(OC)c4Cl)c(C)n3)CC1)C2 [Compound 104] |
| 9 nM |  | 84 nM | C#Cc1ccc2c(c1)[C@@H](N)C1(CCN(c3cc(=O)n(-c4cccc(C(F)(F)F)c4Cl)c(C)n3)CC1)C2 [Compound 106] |
| 739 nM | > 1000 nM |  | C#Cc1ccc2c(c1)[C@@H](N)C1(CCN(c3cc(=O)n(-c4ccccc4C(F)(F)F)c(C)n3)CC1)C2 [Compound 107] |
| 2 nM | 6 nM |  | COCC#Cc1ccc2c(c1)[C@@H](N)C1(CCN(c3cnc(Sc4ccnc(N)n4)c(N)n3)CC1)C2 [Compound 112] |
| 2 nM | 26 nM |  | CCOCC#Cc1ccc2c(c1)[C@@H](N)C1(CCN(c3cc(=O)n(-c4cccc(Cl)c4Cl)c(C)n3)CC1)C2 [Compound 115] |
| 0.5 nM | 1 nM |  | C#Cc1ccc2c(c1)[C@@H](N)C1(CCN(c3ncc(Sc4ccnc(N)n4)nc3CO)CC1)C2 [Compound 116] |
| 2 nM | 24 nM |  | COCC#Cc1ccc2c(c1)[C@@H](N)C1(CCN(c3nc(C)c(Sc4ccnc(N)n4)c4nccn34)CC1)C2 [Compound 117] |
| 45 nM | 385 nM |  | COCC#Cc1ccc2c(c1)[C@@H](N)C1(CCN(c3ncc(-c4cn(C)c5ncccc45)c4nccn34)CC1)C2 [Compound 120] |
| > 1000 nM | > 1000 nM |  | C#Cc1ccc2c(c1)[C@@H](N)C1(CCN(c3cc(=O)n(-c4cccc(Cl)c4Cl)c(C(F)(F)F)n3)CC1)C2 [Compound 121] |
| 0.6 nM | 7 nM |  | NC(=O)C#Cc1ccc2c(c1)[C@@H](N)C1(CCN(c3ncc(Sc4ccnc(N)n4)nc3CO)CC1)C2 [Compound 122] |
| 0.6 nM | 4 nM |  | NC(=O)C#Cc1ccc2c(c1)[C@@H](N)C1(CCN(c3ncc(Sc4ccnc(N)c4Cl)nc3CO)CC1)C2 [Compound 123] |
| 2 nM | 42 nM |  | C#Cc1ccc2c(c1)[C@@H](N)C1(CCN(c3cnc(Sc4ccnc(N)n4)c(N)n3)CC1)C2 [Compound 126] |
| 0.6 nM | 13 nM |  | Cc1nc(N2CCC3(CC2)Cc2ccc(C#CC(N)=O)cc2[C@H]3N)cc(=O)n1-c1cccc(Cl)c1Cl [Compound 127] |
| 0.9 nM | 15 nM |  | NC(=O)C#Cc1ccc2c(c1)[C@@H](N)C1(CCN(c3ncc(Sc4ccnc(N)c4Cl)c4nccn34)CC1)C2 [Compound 128] |
| 0.6 nM | 3 nM |  | NC(=O)C#Cc1ccc2c(c1)[C@@H](N)C1(CCN(c3cnc(Sc4ccnc(N)c4Cl)c(N)n3)CC1)C2 [Compound 129] |
| 3 nM | 4 nM |  | CC#Cc1ccc2c(c1)[C@@H](N)C1(CCN(c3cnc(Sc4ccnc(N)c4Cl)c(N)n3)CC1)C2 [Compound 131] |
| 3 nM | 9 nM |  | COCC#Cc1ccc2c(c1)[C@@H](N)C1(CCN(c3ncc(Sc4ccnc(C)n4)c4nccn34)CC1)C2 [Compound 132] |
| 29 nM | 147 nM |  | C#Cc1ccc2c(c1)[C@@H](N)C1(CCN(c3cc(=O)n(-c4ccccc4SC)c(C)n3)CC1)C2 [Compound 133] |
| 1.4 nM | 5 nM |  | CC#Cc1ccc2c(c1)[C@@H](N)C1(CCN(c3cnc(Sc4ccnc(N)n4)c(N)n3)CC1)C2 [Compound 134] |
| 25 nM | 124 nM |  | C#Cc1cc(F)c2c(c1)[C@@H](N)C1(CCN(c3nc(C)n(-c4cccc(Cl)c4Cl)c(=O)c3F)CC1)C2 [Compound 167] |
| 6 nM | 125 nM |  | COCC#Cc1ccc2c(c1)[C@@H](N)C1(CCN(c3nc(C)n(-c4cccc(Cl)c4Cl)c(=O)c3F)CC1)C2 [Compound 169] |
| 13 nM | 251 nM |  | C#Cc1ccc2c(c1)[C@@H](N)C1(CCN(c3nc(C)c(Sc4ccnc(N)c4Cl)n4cncc34)CC1)C2 [Compound 180] |
| 14 nM | > 1000 nM |  | C#Cc1ccc2c(c1)[C@@H](N)C1(CCN(c3cc(=O)n(-c4ccc(C#N)c(O)c4F)c(C)n3)CC1)C2 [Compound 185] |
